Reference: the supplement of paper PMC10307832

Columns and labels:
Assay in all cases: relative viability (nuclei count vs DMSO), 5 days (fraction); higher = more cells survive
Bortezomib + Phenformin = compound: CC(C)C[C@H](NC(=O)[C@H](Cc1ccccc1)NC(=O)c1cnccn1)B(O)O [Bortezomib] + N=C(N)NC(=N)NCCc1ccccc1 [Phenformin] (partner 250 µM)
Outline: (§1)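 Relative viability is defined as nuclei in treated wells over nuclei in vehicle wells. Duplicate plates were run and medians reported. Lung cancer cell lines in 1536-well plates were dosed by pin tool one day after seeding, with one drug or with a fixed anchor-drug dose plus five library-drug doses (not always all listed) in √10 steps, and nuclei were counted after 5 days.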

Bortezomib + Trametinib = compound: CC(C)C[C@H](NC(=O)[C@H](Cc1ccccc1)NC(=O)c1cnccn1)B(O)O [Bortezomib] + CC(=O)Nc1cccc(-n2c(=O)n(C3CC3)c(=O)c3c(Nc4ccc(I)cc4F)n(C)c(=O)c(C)c32)c1 [Trametinib] (partner 0.02 µM)
Outline: as §1

Bortezomib + Alpelisib = compound: CC(C)C[C@H](NC(=O)[C@H](Cc1ccccc1)NC(=O)c1cnccn1)B(O)O [Bortezomib] + Cc1nc(NC(=O)N2CCC[C@H]2C(N)=O)sc1-c1ccnc(C(C)(C)C(F)(F)F)c1 [Alpelisib] (partner 2 µM)
Outline: as §1

[1] = compound: CC1=CC(=NN1)NC2=CC(=NC(=N2)/C=C/C3=CC=CC=C3)N4CCN(CC4)C + CC(=O)c1c(C)c2cnc(Nc3ccc(N4CCNCC4)cn3)nc2n(C2CCCC2)c1=O [Palbociclib] (partner 0.5 µM)
Outline: as §1

| Cell Line | relative viability (Bortezomib + Phenformin; first compound 0.0002 µM) | relative viability (Bortezomib + Phenformin; first compound 0.000632 µM) | relative viability (Bortezomib + Phenformin; first compound 0.002 µM) | relative viability (Bortezomib + Phenformin; first compound 0.006325 µM) | relative viability (Bortezomib + Phenformin; first compound 0.02 µM) | relative viability (Bortezomib + Trametinib; first compound 0.0002 µM) | relative viability (Bortezomib + Trametinib; first compound 0.002 µM) | relative viability (Bortezomib + Trametinib; first compound 0.006325 µM) | relative viability (Bortezomib + Trametinib; first compound 0.02 µM) | relative viability (Bortezomib + Alpelisib; first compound 0.000632 µM) | relative viability (Bortezomib + Alpelisib; first compound 0.002 µM) | relative viability (Bortezomib + Alpelisib; first compound 0.006325 µM) | relative viability (Bortezomib + Alpelisib; first compound 0.02 µM) | relative viability ([1]; first compound 0.08 µM) | relative viability ([1]; first compound 0.253 µM) | relative viability ([1]; first compound 0.8 µM) | relative viability ([1]; first compound 2.53 µM) | relative viability ([1]; first compound 8 µM) | relative viability (Bortezomib + Trametinib; first compound 0.000632 µM) | relative viability (Bortezomib + Alpelisib; first compound 0.0002 µM) |
| --- | --- | --- | --- | --- | --- | --- | --- | --- | --- | --- | --- | --- | --- | --- | --- | --- | --- | --- | --- | --- |
| NCI-H23 | 0.79 | 0.652 | 0.785 | 0.277 | 0.114 | 0.343 | 0.286 | 0.193 | 0.114 | 0.72 | 0.829 | 0.116 | 0.109 | 0.483 | 0.505 | 0.409 | 0.158 | 0.123 |  |  |
| NCI-H322M | 0.807 |  | 0.748 | 0.295 | 0.322 | 0.547 | 0.47 | 0.486 | 0.411 |  | 0.713 | 0.731 | 1.38 | 0.444 | 0.572 | 0.458 | 0.336 | 0.287 | 0.455 | 0.771 |
| NCI-H358 | 0.316 | 0.305 | 0.354 | 0.0576 | 0.0696 | 0.12 | 0.133 | 0.094 | 0.0906 | 0.873 | 0.613 | 0.161 | 0.162 | 0.12 | 0.144 | 0.133 | 0.0673 | 0.072 | 0.121 | 0.782 |
| NCI-H441 | 0.969 | 0.732 | 0.514 | 0.166 | 0.189 | 0.428 | 0.153 | 0.131 | 0.127 | 0.58 | 0.19 | 0.132 | 0.111 | 0.169 | 0.214 | 0.203 | 0.115 | 0.103 | 0.482 | 0.613 |
| NCI-H460 | 0.347 | 0.526 | 0.554 | 0.0373 | 0.0212 | 0.126 | 0.202 | 0.0768 | 0.0189 | 0.455 | 0.515 | 0.125 | 0.0093 | 0.159 | 0.145 | 0.149 | 0.0195 | 0.0182 | 0.157 | 0.419 |
| NCI-H520 | 0.599 | 0.669 | 0.422 | 0.213 | 0.17 | 0.667 | 0.451 | 0.141 | 0.128 | 0.935 | 0.91 | 0.155 | 0.135 | 0.209 | 0.214 | 0.184 | 0.142 | 0.113 | 0.741 | 0.981 |
| NCI-H647 | 0.479 | 0.444 | 0.267 | 0.0466 | 0.0232 | 0.471 | 0.542 | 0.0211 | 0.0513 | 1.24 | 0.881 | 0.0394 | 0.0242 | 0.429 | 0.365 | 0.332 | 0.115 | 0.0496 | 0.404 | 1.07 |
| NCI-H661 | 0.286 | 0.292 | 0.302 | 0.239 | 0.204 | 0.526 | 0.62 | 0.364 | 0.207 | 0.501 | 0.625 | 0.602 | 0.216 | 0.4 | 0.41 | 0.404 | 0.27 | 0.269 | 0.493 | 0.582 |
| NCI-H727 | 0.542 | 0.475 | 0.548 | 0.301 | 0.178 | 0.367 | 0.363 | 0.413 | 0.266 | 0.514 | 0.494 | 0.14 | 0.106 | 0.641 | 0.628 | 0.672 | 0.691 | 0.409 | 0.43 | 0.5 |
| NCI-H838 | 0.6 | 0.526 | 0.64 | 0.127 | 0.115 | 0.479 | 0.549 | 0.106 | 0.0935 | 0.983 | 1.13 | 0.475 | 0.134 | 0.243 | 0.241 | 0.169 | 0.127 | 0.106 | 0.677 | 0.977 |
| NCI-H1355 | 0.446 | 0.414 | 0.493 | 0.381 | 0.176 | 0.432 | 0.457 | 0.216 | 0.118 | 0.783 | 0.685 | 0.137 | 0.126 | 0.442 | 0.444 | 0.387 | 0.309 | 0.165 | 0.468 | 0.826 |
| NCI-H1395 | 0.477 | 0.435 | 0.446 | 0.361 | 0.27 | 1.14 | 0.708 | 0.315 | 0.31 | 1.06 | 0.387 | 0.411 | 0.393 | 0.557 | 0.635 | 0.628 | 0.433 | 0.285 | 0.939 | 1.15 |
| NCI-H1437 | 0.385 | 0.28 | 0.278 | 0.129 | 0.133 | 0.537 | 0.551 | 0.178 | 0.226 | 0.975 | 1.05 | 0.0854 | 0.0875 | 0.304 | 0.317 | 0.307 | 0.231 | 0.152 | 0.584 | 0.951 |
| NCI-H1651 | 0.354 | 0.312 | 0.229 | 0.101 | 0.106 | 0.802 | 0.726 | 0.155 | 0.117 | 0.87 | 0.748 | 0.114 | 0.0938 | 0.525 | 0.536 | 0.496 | 0.462 | 0.266 | 0.843 | 1 |
| NCI-H1666 | 0.533 | 0.544 | 0.559 | 0.365 | 0.307 | 0.918 | 0.914 | 0.599 | 0.522 | 0.98 | 1.04 | 0.232 | 0.217 | 0.684 | 0.621 | 0.567 | 0.638 | 0.604 | 0.972 | 1.04 |
